From patent US7387999B2, “Simmondsin for use as angiogenesis inhibitor” (priority 2002, dated 2008)
Like-named read-outs stand apart in the source and are kept apart here.

Experiments:
human oestrogen receptor = target: T1, human oestrogen receptor (Homo sapiens, UniProt P03372); assay: oestrogenic bioassay; format: cell-based; details: yeast with human oestrogen receptor; 1, 10, 100, 1000 μM; 3 days; compared to 17 beta-oestradiol standards, FIG. 11
T1 construct: expressed in transfected cells; host or cells: Saccharomyces cerevisiae (recombinant yeast)
T1 sequence (P03372 1-595): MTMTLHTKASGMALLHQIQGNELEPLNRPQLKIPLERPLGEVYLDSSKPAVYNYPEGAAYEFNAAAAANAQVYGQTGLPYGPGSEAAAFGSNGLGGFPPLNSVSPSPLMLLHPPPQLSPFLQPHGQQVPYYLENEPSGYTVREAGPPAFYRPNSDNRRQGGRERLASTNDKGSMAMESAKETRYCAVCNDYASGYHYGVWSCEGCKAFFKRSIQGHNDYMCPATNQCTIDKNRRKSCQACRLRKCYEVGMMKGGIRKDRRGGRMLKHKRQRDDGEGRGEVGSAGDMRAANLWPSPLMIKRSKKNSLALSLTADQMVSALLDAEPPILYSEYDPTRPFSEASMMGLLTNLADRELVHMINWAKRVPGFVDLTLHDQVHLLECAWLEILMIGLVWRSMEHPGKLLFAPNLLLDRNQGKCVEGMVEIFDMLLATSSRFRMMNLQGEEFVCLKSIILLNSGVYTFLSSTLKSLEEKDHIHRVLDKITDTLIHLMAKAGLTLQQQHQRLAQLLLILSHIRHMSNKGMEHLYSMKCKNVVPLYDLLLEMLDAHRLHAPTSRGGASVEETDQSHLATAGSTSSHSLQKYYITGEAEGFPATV
Description: In an experiment, yeast cells (Saccharomyces cerevisiae) containing a human oestrogen receptor (100 μl) was added to 25 ml growth medium. The growth medium comprised • D-glucose (2.5 ml from 20 g D-glucose in 80 ml water); • L-aspartic acid (0.625 ml from 400 mg in 100 ml water); • vitamin solution (0.250 ml from 8 mg thiamine, 8 mg pyridoxine, 8 mg panthotenic acid, 40 mg inositol and 20 ml biotin solution (2 mg in 100 ml water) in 180 ml water); • L-threonine (0.2 ml from 2.4 g in 100 ml water), copper(II)sulphate (0.0625 ml from 160 mg in 50 ml water); • minimal medium (22.5 ml from 1 l water composed of 13.61 g potassium dihydrogenphosphate, 1.98 g ammonium sulphate, 4.2 g potassium hydroxide, 1 ml iron(III)sulphate (40 mg in 50 ml water), 50 mg L-leucine, 50 mg L-histidine, 50 mg adenine, 20 mg L-arginine hydrochloride, 20 mg L-methionine, 30 mg L-tyrosine, 30 mg L-isoleucine, 30 mg L-lysine hydrochloride, 25 mg L-phenylalanine, 100 mg L-glutamic acid, 150 mg L-valine, 375 mg L-serine); and chlorophenol red beta-D-galactopyranoside (0.250 ml).
17 beta-oestradiol (20 μl aliquots from 0.008 nM to 100 nM, prepared from 10 mg in 10 ml ethanol) and test compounds, in concentrations of 1, 10, 100, 1000 μM, were pipetted into 96-well plates in a sterile flow hood. The solvent was left to evaporate for about 40 min.
The growth medium containing yeast was dispensed to all wells, except blank wells, in aliquots of 100 μl. The plates were incubated at 32° C. in a humidified atmosphere for 3 days, and then read at 540/360 nm by a microtiter plate reader (labsystems Muliskan Ascent Reader, Thermo labsystems, Vantaa, Finland).

[1] = system: human microvascular endothelial cells (hMVEC); assay: in vitro angiogenesis assay: tube formation in 3-D fibrin matrices; format: cell-based; details: hMVEC on 3-D fibrin matrix, VEGF-A 25 ng/mL and TNFα 10 ng/mL, 7 days, FIG. 8
Description: Human fibrin matrices were prepared by the addition of 0.1 U/ml thrombin to a commercially obtained (Chromogenix AB, Mölndal, Sweden) mixture of 2 mg/ml fibrinogen (final concentrations), 2 mg/ml Na-citrate, 0.8 mg/ml NaCl, 3 μg/ml plasminogen in M199 medium and 2.5 U/ml factor XIII. 100 μl aliquots of this mixture were added to the wells of 96-well plates. After clotting at room temperature, the fibrin matrices were soaked with M199 supplemented with 10% HS and 10% NBCS for 2 h at 37° C. to inactivate the thrombin. […] Invading cells and the formation of tubular structures of hMVEC in the three-dimensional fibrin matrix were analysed by phase contrast microscopy. The total length of tube-like structures of four microscopic fields (7.3 mm^2/field) were (clockwise) measured using an Olympus CK2 microscope equipped with a monochrome CCD camera (MX5) connected to a computer with Optimas image analysis software, and expressed as mm/cm^2 (Koolwijk et al. J. Cell Biol. 1996, 132:1177-188).
HMVEC were cultured on top of a 3-D fibrin matrix in M199, 10% human serum, 10% NBCS supplemented with VEGF-A (25 ng/mL) and TNFα (10 ng/mL) in the presence or absence of the indicated concentrations (w/v) of the compositions A1, A2, A3, A4, A5, B4, B5 and B6. […] The data are expressed as the mean of two wells indicated by the error bars (FIG. 8 B).

[2] = system: chorion allantois membrane (CAM); assay: chorion allantois membrane (CAM) assay; format: in vivo, chicken; details: for effect on blood vessel growth in the CAM (in words): Experiment 1
Description: Fertilized chicken eggs are incubated during 4 days at 37° C. Subsequently, the egg shell is opened to disclose the CAM. In order to reduce the pressure on the CAM for improving its manipulating properties, 2 to 3 ml albumen is removed. The opening is closed using cellophane tape and the eggs are further incubated until day 9 for application of the liquid test compounds using different concentrations. Dulbecco's modified Eagle medium (DMEM) was used as a negative control, whereas Vascular Endothelial Growth factor (VEGF) was used as a positive control (stimulator of angiogenesis). A total polar extract from refined, de-oiled jojoba flour, dimethylsimmondsin purified from this extract and a commercially known angiogenesis inhibitor (Tangeritin) were compared in their angiogenesis-inhibiting activity towards VEGF stimulated angiogenesis in the CAM's. Each of these solubilized test compositions was pipetted on a sterile plastic disc (10 mm diameter) and dried under sterile conditions.
Each disc was treated with cortisone acetate (100 μg/50 μl) in order to avoid inflammatory reactions. After drying, the discs were placed on the CAM with the charged side facing the CAM. The control disc (DMEM) was placed at 1 cm of the disc containing the test component. The opening was sealed with cellophane tape and the eggs were further incubated. At day 11, the tape and discs were removed and 10% buffered formaline was sprayed over the CAM. Eggs were allowed to dry for 2 to 4 h at room T°. Then, the CAM was cut out of the egg and mounted on a glass slide. The vascular density index is measured according to Harris-Hooker et al. (1983; J. Cell. Physiol. 114:302-310); all micro vessels that cross 3 concentric circles with a diameter of 6, 8 and 10 mm were counted, as illustrated on FIG. 2.
The angiogenetic Index (AI) is expressed as {(t/c)×100}−100, whereby t=total number of crossing vessels where the disc containing the test component was located, and c=total number of crossing vessels where the control disc was located. […]

angiogenesis = details: in vitro and in vivo assays

For `COc1cc(C=CC(=O)OC2C(OC3CC(OC)C(OC)C(O)C3=CC#N)OC(CO)C(O)C2O)ccc1O` (stereo not shown) [E simmondsin-2′-ferulate], the oestrogen-like activity (human oestrogen receptor) was “no significant oestrogen-like activity”.
`COC1CC(OC2OC(CO)C(O)C(O)C2O)C(=CC#N)C(O)C1O` (stereo not shown) [4-desmethylsimmondsin] was tested, and the oestrogen-like activity (human oestrogen receptor) was “no significant oestrogen-like activity”.
With `COc1cc(/C=C\C(=O)O[C@@H]2[C@@H](O[C@@H]3C[C@H](OC)[C@H](OC)[C@@H](O)/C3=C/C#N)O[C@@H](CO)[C@H](O)[C@H]2O)ccc1O` [Z simmondsin-2′-ferulate] the oestrogen-like activity (human oestrogen receptor) was “no significant oestrogen-like activity”.
desmethylsimmondsin was tested, and the “inhibition of VEGF-induced in vitro tube formation” value [1] was “highest biological activity”.
VEGF [reference compound] was tested, and the “effect on blood vessel growth in the CAM (in words)” value [2] was “significant blood vessel growth compared with the negative control group (DMEM)”.
With “4,5-dimethylsimmondsin ferulate (cis/trans) [A5]” the “angiogenesis-inhibiting activity (overall conclusion)” value (angiogenesis) was “higher angiogenesis-inhibiting activity than the unsubstituted dimethylsimmondsin” and the “angiogenesis-inhibiting activity (overall conclusion)” value (angiogenesis; listed as dimethylsimmondsin ferulates) was “significant angiogenesis-inhibiting activity, which is higher than the activity of unsubstituted dimethylsimmondsin”.
In the case of `CO[C@H]1[C@@H](O)C[C@@H](O[C@@H]2O[C@H](CO)[C@@H](O)[C@H](O)[C@H]2O)/C(=C\C#N)[C@@H]1O` [5-desmethylsimmondsin], the oestrogen-like activity (human oestrogen receptor) is reported as “no significant oestrogen-like activity”.
In the case of `N#CC=C1CC(O)C(O)C(O)C1O[C@@H]1O[C@H](CO)[C@@H](O)[C@H](O)[C@H]1O` (stereo partly shown) [B5, 4,5-didesmethylsimmondsin], the oestrogen-like activity (human oestrogen receptor) is reported as “no significant oestrogen-like activity” and the “inhibition of VEGF-induced in vitro tube formation” value [1] is reported as “highest biological activity”.
For 4,5-dimethylsimmondsin [A4], the oestrogen-like activity (human oestrogen receptor) was “no significant oestrogen-like activity”, the “effect on blood vessel growth in the CAM (in words)” value [2] was “significant angiogenesis inhibition comparable with tangeritin” and the “angiogenesis-inhibiting activity in the CAM (in words)” value ([2]; Experiments 2 and 3, A4 in the same concentration as the total polar extract) was “lower than the total polar extract but nevertheless still significant”.
